The values below come from patent US6486185B1, “3-heteroarylidene-2-indolinone protein kinase inhibitors” (Sugen, Inc., priority 1997, dated 2002).

The term IC50 denotes the point on the concentration scale where inhibition reaches its midpoint.

T1 sequence (P08069 31-1367, species assumed): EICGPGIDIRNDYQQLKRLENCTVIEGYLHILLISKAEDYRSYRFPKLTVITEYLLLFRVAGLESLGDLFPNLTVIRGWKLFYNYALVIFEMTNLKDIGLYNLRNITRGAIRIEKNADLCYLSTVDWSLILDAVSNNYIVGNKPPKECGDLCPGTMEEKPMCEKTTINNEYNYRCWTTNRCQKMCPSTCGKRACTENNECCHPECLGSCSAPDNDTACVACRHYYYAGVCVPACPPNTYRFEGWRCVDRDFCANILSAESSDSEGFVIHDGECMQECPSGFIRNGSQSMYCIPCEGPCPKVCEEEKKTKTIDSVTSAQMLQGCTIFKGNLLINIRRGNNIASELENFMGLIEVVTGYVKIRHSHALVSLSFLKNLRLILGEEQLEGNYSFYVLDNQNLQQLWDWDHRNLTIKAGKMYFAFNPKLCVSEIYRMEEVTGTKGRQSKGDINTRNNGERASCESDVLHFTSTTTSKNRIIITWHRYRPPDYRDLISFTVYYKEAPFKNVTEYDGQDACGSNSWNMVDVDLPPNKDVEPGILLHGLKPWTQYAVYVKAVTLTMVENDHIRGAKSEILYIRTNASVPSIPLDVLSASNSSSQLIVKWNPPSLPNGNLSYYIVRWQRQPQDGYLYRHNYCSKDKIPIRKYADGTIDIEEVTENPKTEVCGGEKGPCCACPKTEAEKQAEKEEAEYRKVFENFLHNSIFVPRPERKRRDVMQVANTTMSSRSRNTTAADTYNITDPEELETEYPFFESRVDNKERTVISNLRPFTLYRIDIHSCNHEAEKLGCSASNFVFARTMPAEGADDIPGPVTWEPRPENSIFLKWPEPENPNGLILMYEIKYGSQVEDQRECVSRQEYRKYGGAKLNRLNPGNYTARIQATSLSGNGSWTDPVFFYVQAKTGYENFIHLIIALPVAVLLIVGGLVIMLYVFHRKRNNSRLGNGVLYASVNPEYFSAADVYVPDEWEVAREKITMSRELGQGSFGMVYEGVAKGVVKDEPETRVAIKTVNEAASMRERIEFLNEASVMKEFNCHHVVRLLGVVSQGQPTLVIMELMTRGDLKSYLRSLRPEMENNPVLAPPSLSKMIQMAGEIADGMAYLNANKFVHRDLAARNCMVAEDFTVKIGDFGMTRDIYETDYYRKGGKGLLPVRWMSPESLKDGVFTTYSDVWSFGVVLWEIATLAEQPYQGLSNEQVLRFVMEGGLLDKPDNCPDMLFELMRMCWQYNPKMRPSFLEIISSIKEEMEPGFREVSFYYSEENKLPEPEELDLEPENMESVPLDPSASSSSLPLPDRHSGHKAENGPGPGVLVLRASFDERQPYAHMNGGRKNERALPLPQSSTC

The assay addresses T1, IGF-1R (Homo sapiens, UniProt P08069).
T1 construct: expressed in transfected cells; host or cells: NIH3T3 (3T3/IGF-1R)
Briefly: IGF-I receptor ELISA in 3T3/IGF-1R cells. To be noted: 50% inhibition of PTK activity over control. Format: cell-based. On the procedure: The cellular/catalytic assays described herein are performed in an ELISA format. The general procedure is a follows: a compound is introduced to cells expressing the test kinase, either naturally or recombinantly, for some period of time after which, if the test kinase is a receptor, a ligand known to activate the receptor's activity is added. The cells are lysed and the lysate is transferred to the wells of an ELISA plate previously coated with a specific antibody recognizing the substrate of the enzymatic phosphorylation reaction. Non-substrate components of the cell lysate are washed away and the amount of phosphorylation on the substrate is detected with an antibody specifically recognizing phosphotyrosine compared with control cells that were not contacted with a test compound.
The following protocol may be used to measure phosphotyrosine level on IGF-I receptor, which indicates IGF-I receptor tyrosine kinase activity.
The following materials and reagents are used:
a. The cell line used in this assay is 3T3/IGF-1R, a cell line genetically engineered to overexpresses IGF-1 receptor.
b. NIH3T3/IGF-1R is grown in an incubator with 5% CO2 at 37° C. The growth media is DMEM+10% FBS (heat inactivated)+2 mM L-glutamine.
c. Affinity purified anti-IGF-1R antibody 17-69.
e. Blocking Buffer: TBST plus 5% Milk (Carnation Instant Non-Fat Dry Milk).
Stock solution of TBS (10×) is prepared, and Triton X-100 is added to the buffer during dilution.
Stock solution (5×) is prepared and kept at 4° C.
h. EDTA/HCl: 0.5 M pH 7.0 (NaOH) as 100×stock.
i. Na3VO4: 0.5 M as 100×stock and aliquots are kept in −80° C.
k. Insulin-like growth factor-1 from Promega (Cat# G5111).
l. Rabbit polyclonal anti-phosphotyrosine antiserum.
m. Goat anti-rabbit IgG, POD conjugate (detection antibody), Tago (Cat. No. 4520, Lot No. 1802): Tago, Inc., Burlingame, Calif.
n. ABTS (2,2′-azinobis(3-ethylbenzthiazolinesulfonic acid)) solution:
ABTS solution should be kept in dark and 4° C. The solution should be discarded when it turns green.
o. Hydrogen Peroxide: 30% solution is kept in the dark and at 4° C.
All the following steps are conducted at room temperature unless it is specifically indicated. All ELISA plate washings are performed by rinsing the plate with tap water three times, followed by one TBST rinse. Pat plate dry with paper towels.
1. The cells, grown in tissue culture dish (Corning 25020-100) to 80-90% confluence, are harvested with Trypsin-EDTA (0.25%, 0.5 mL/D-100, GIBCO).
2. Resuspend the cells in fresh DMEM+10% FBS+2 mM L-Glutamine, and transfer to 96-well tissue culture plate (Corning, 25806-96) at 20,000 cells/well (100 μL/well). Incubate for 1 day then replace medium to serum-free medium (90/μL) and incubate in 5% CO2 and 37° C. overnight.
B. ELISA Plate Coating and Blocking:
1. Coat the ELISA plate (Corning 25805-96) with Anti-IGF-1R Antibody at 0.5 μg/well in 100 μL PBS at least 2 hours.
2. Remove the coating solution, and replace with 100 μL Blocking Buffer, and shake for 30 minutes. Remove the blocking buffer and wash the plate just before adding lysate.
1. The drugs are tested in serum-free condition.
2. Dilute drug stock (in 100% DMSO) 1:10 with DMEM in 96-well poly-propylene plate, and transfer 10 μL/well of this solution to the cells to achieve final drug dilution 1:100, and final DMSO concentration of 1.0%. Incubate the cells in 5% CO2 at 37° C. for 2 hours.
3. Prepare fresh cell lysis buffer (HNTG*)
4. After drug incubation for two hours, transfer 10 μL/well of 200 nM IGF-1 Ligand in PBS to the cells (Final Conc.=20 nM), and incubate at 5% CO2 at 37° C. for 10 minutes.
5. Remove media and add 100 μL/well HNTG* and shake for 10 minutes. Look at cells under microscope to see if they are adequately lysed.
6. Use a 12-channel pipette to scrape the cells from the plate, and homogenize the lysate.by repeated aspiration and dispensing. Transfer all the lysate to the antibody coated ELISA plate, and shake for 1 hour.
7. […]
(In general: An ELISA detects its analyte on a solid surface through an enzyme-linked reagent.)
In turn, `CCOC(=O)c1c(C)[nH]c(C=C2C(=O)Nc3ccc(NC(=O)c4ccc(C(=O)OC)cc4)cc32)c1C` [3-(2,4-dimethyl-3-ethoxycarbonylpyrrol-5-methylidenyl)-5-(4-methoxycarbonylbenzamido)-2-indolinone] came in with an IC50 above 10 µM.
To `CCOC(=O)c1c(C)[nH]c(C=C2C(=O)Nc3ccc(Br)cc32)c1C` [3-(2,4-dimethyl-3-ethoxycarbonylpyrrol-5-methylidenyl)-5-bromo-2-indolinone] belongs above 100 µM; to `CC(=O)c1[nH]c(C=C2C(=O)Nc3ccccc32)c(C)c1C` [3-(2-acetyl-3,4-dimethylpyrrol-5-methylidenyl)-2-indolinone], above 100 µM.
Compound `COC(=O)Cc1c(Cl)[nH]c(C=C2C(=O)Nc3ccccc32)c1C(=O)OC` [3-(2-chloro-4-methoxycarbonyl-3-methoxycarbonylmethylpyrrol-5-methylidenyl)-2-indolinone] returned an IC50 above 50 µM.
To `CCOC(=O)c1[nH]c(C=C2C(=O)Nc3ccccc32)c(C(C)=O)c1C` [3-(4-acetyl-2-ethoxycarbonyl-3-methylpyrrol-5-methylidenyl)-2-indolinone] belongs above 10 µM; to `CCOC(=O)c1c[nH]c(C=C2C(=O)Nc3ccccc32)c1C` [3-(4-ethoxycarbonyl-3-methylpyrrol-2-methylidenyl)-2-indolinone], above 100 µM; to `CCOC(=O)CCc1c(C(=O)OCC)[nH]c(C=C2C(=O)Nc3ccccc32)c1CC(=O)OCC` [3-[2-ethoxycarbonyl-3-(2-ethoxycarbonylethyl)-4-ethoxycarbonylmethyl)pyrrol-5-methylidenyl)-2-indolinone], above 10 µM.
To `Cc1c[nH]c(C=C2C(=O)Nc3ccccc32)c1CCC(=O)O` [3-[3-(2-carboxyethyl-4-methylpyrrol-2-methylidenyl]-2-indolinone] belongs above 100 µM.
To `COC(=O)CCc1c[nH]c(C=C2C(=O)Nc3cc(OC)c(OC)cc32)c1C` [3-[4-(2-methoxycarbonylethyl)-3-methylpyrrol-2-methylidenyl]-5,6-dimethoxy-2-indolinone] belongs above 50 µM; to `COC(=O)CCc1c[nH]c(C=C2C(=O)Nc3ccccc32)c1C` [3-[4-(2-methoxycarbonylethyl-3-methylpyrrol-2-methylidenyl]-2-indolinone], above 100 µM.
